Measurements: PubChem BioAssay AID588771 (The Scripps Research Institute Molecular Screening Center, 2011)
The source made the active and inactive calls. How the calls were made is not given here.

molecular target: 3C-like protease (3CLpro), SARS coronavirus; assay: SARS 3CLpro protease inhibitor potency, late-stage follow-up, biochemical, fluorescence, dose response, set 3 (AID 588771); conditions: purified 3CLpro, fluorogenic substrate cleavage

| SMILES | IC50 |
| --- | --- |
| O=C(Nc1ccc(N(C(=O)Cn2nnc3ccccc32)C(C(=O)NCc2ccccc2)c2cccc(F)c2)cc1)C1CC1 (stereo not given) | 3 µM |
| O=C(Nc1ccc(N(C(=O)Cn2nnc3ccccc32)C(C(=O)NCc2ccccc2)c2cccc(F)c2)cc1)C1CCC1 (stereo not given) | 2.3 µM |
| CC(C)C(=O)Nc1ccc(N(C(=O)Cn2nnc3ccccc32)C(C(=O)NCc2ccccc2)c2cccc(F)c2)cc1 (stereo not given) | 4.1 µM |
| CC(C)(C)NC(=O)C(c1cccnc1)N(C(=O)c1ccco1)c1ccc(Cc2ccccc2)cc1 (stereo not given) | inactive |
| CC(C)(C)NC(=O)[C@H](c1cccnc1)N(C(=O)c1cnc[nH]1)c1ccc(C(C)(C)C)cc1 | 4.5 µM |
| Cn1cnc(C(=O)N(c2ccc(C(C)(C)C)cc2)C(C(=O)NC(C)(C)C)c2cccnc2)c1 (stereo not given) | inactive |
| CC(C)(C)NC(=O)[C@@H](c1cccnc1)N(C(=O)c1cnc[nH]1)c1ccc(C(C)(C)C)cc1 | inactive |
| CC(C)(C)NC(=O)C(c1cnccn1)N(C(=O)c1ccco1)c1ccc(C(C)(C)C)cc1 (stereo not given) | 5.5 µM |
| CC(C)(C)NC(=O)C(c1ccncc1)N(C(=O)c1ccco1)c1ccc(C(C)(C)C)cc1 (stereo not given) | inactive |
| CC(C)(C)NC(=O)C(c1ccnnc1)N(C(=O)c1ccco1)c1ccc(C(C)(C)C)cc1 (stereo not given) | inactive |
